Calls of active or inactive are those of the source. The rule behind the calls is not given here. Residues, ends and D or L forms follow the SMILES beside them.
molecular target: T1, Thrombopoietin receptor (Homo sapiens) (UniProt P40238); assay: Binding affinity to c-Mpl (unknown origin) expressed in […] NIH-3T3 cells after 48 hrs by dual-glo luciferase reporter gene assay relative to control; format: cell-based; conditions: NIH3T3
T1 sequence (whole entry): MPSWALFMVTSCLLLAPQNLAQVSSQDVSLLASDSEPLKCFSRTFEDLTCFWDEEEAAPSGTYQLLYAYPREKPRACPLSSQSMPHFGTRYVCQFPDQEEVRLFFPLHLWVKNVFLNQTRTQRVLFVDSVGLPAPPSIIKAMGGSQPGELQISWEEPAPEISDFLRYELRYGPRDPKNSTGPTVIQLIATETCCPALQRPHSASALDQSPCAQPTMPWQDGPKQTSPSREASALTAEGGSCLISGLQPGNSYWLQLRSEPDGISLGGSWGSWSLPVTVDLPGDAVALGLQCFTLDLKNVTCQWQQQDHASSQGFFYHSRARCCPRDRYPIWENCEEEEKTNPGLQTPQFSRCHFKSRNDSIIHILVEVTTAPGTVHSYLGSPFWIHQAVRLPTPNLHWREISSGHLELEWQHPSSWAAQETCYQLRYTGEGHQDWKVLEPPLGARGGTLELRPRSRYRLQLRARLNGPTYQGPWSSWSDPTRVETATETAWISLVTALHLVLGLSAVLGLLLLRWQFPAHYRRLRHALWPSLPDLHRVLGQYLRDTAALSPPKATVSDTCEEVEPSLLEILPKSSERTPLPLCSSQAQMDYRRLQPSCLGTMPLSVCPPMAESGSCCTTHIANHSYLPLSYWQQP

SMILES	Activity
CC[C@H](C)[C@H](N)C(=O)N[C@@H](CCC(=O)O)C(=O)NCC(=O)N1CCC[C@H]1C(=O)N[C@H](C(=O)N[C@@H](CC(C)C)C(=O)N[C@@H](CCCNC(=N)N)C(=O)N[C@@H](CCC(N)=O)C(=O)N[C@@H](Cc1c[nH]c2ccccc12)C(=O)N[C@@H](CC(C)C)C(=O)N[C@@H](C)C(=O)N[C@@H](C)C(=O)N[C@@H](CCCNC(=N)N)C(=O)N[C@@H](C)C(=O)NCC(=O)NCC(=O)NCC(=O)NCC(=O)N[C@@H](CO)C(=O)NCC(=O)NCC(=O)NCC(=O)N[C@@H](CO)C(=O)NCC(=O)N[C@H](C(=O)N[C@@H](CCC(=O)O)C(=O)NCC(=O)N1CCC[C@H]1C(=O)N[C@H](C(=O)N[C@@H](CC(C)C)C(=O)N[C@@H](CCCNC(=N)N)C(=O)N[C@@H](CCC(N)=O)C(=O)N[C@@H](Cc1c[nH]c2ccccc12)C(=O)N[C@@H](CC(C)C)C(=O)N[C@@H](C)C(=O)N[C@@H](C)C(=O)N[C@@H](CCCNC(=N)N)C(=O)N[C@@H](C)C(=O)O)[C@@H](C)O)[C@@H](C)CC)[C@@H](C)O (H-IEGPTLRQWLAARAGGGGSGGGSGIEGPTLRQWLAARA-OH)	Active
CC[C@H](C)[C@H](N)C(=O)N[C@@H](CCC(=O)O)C(=O)NCC(=O)N1CCC[C@H]1C(=O)N[C@H](C(=O)N[C@@H](CC(C)C)C(=O)N[C@@H](CCCNC(=N)N)C(=O)N[C@@H](CCC(N)=O)C(=O)N[C@@H](Cc1c[nH]c2ccccc12)C(=O)N[C@@H](CC(C)C)C(=O)N[C@@H](C)C(=O)N[C@@H](C)C(=O)N[C@@H](CCCNC(=N)N)C(=O)N[C@@H](C)C(=O)NCC(=O)NCC(=O)NCC(=O)N[C@@H](CO)C(=O)NCC(=O)N[C@H](C(=O)N[C@@H](CCC(=O)O)C(=O)NCC(=O)N1CCC[C@H]1C(=O)N[C@H](C(=O)N[C@@H](CC(C)C)C(=O)N[C@@H](CCCNC(=N)N)C(=O)N[C@@H](CCC(N)=O)C(=O)N[C@@H](Cc1c[nH]c2ccccc12)C(=O)N[C@@H](CC(C)C)C(=O)N[C@@H](C)C(=O)N[C@@H](C)C(=O)N[C@@H](CCCNC(=N)N)C(=O)N[C@@H](C)C(=O)O)[C@@H](C)O)[C@@H](C)CC)[C@@H](C)O (H-IEGPTLRQWLAARAGGGSGIEGPTLRQWLAARA-OH)	Active
CC[C@H](C)[C@H](N)C(=O)N[C@@H](CCC(=O)O)C(=O)NCC(=O)N1CCC[C@H]1C(=O)N[C@H](C(=O)N[C@@H](CC(C)C)C(=O)N[C@@H](CCCNC(=N)N)C(=O)N[C@@H](CCC(N)=O)C(=O)N[C@@H](Cc1c[nH]c2ccccc12)C(=O)N[C@@H](CC(C)C)C(=O)N[C@@H](C)C(=O)N[C@@H](C)C(=O)N[C@@H](CCCNC(=N)N)C(=O)N[C@@H](C)C(=O)NCC(=O)NCC(=O)N1CCC[C@H]1C(=O)N[C@@H](CO)C(=O)NCC(=O)N[C@H](C(=O)N[C@@H](CCC(=O)O)C(=O)NCC(=O)N1CCC[C@H]1C(=O)N[C@H](C(=O)N[C@@H](CC(C)C)C(=O)N[C@@H](CCCNC(=N)N)C(=O)N[C@@H](CCC(N)=O)C(=O)N[C@@H](Cc1c[nH]c2ccccc12)C(=O)N[C@@H](CC(C)C)C(=O)N[C@@H](C)C(=O)N[C@@H](C)C(=O)N[C@@H](CCCNC(=N)N)C(=O)N[C@@H](C)C(=O)O)[C@@H](C)O)[C@@H](C)CC)[C@@H](C)O (H-IEGPTLRQWLAARAGGPSGIEGPTLRQWLAARA-OH)	Active
